Measurements published in patent publication US5593970A, “Heterocyclic anthracycline analogs” (priority 1994, dated 1997).
Where a name gives a salt, the structure may show the parent alone.

Key:
LS180 = experiment: Soft agar colony formation disk diffusion assay; format: cell-based, human
How it was run: (§1)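 Cells were suspended at 10^4 to 2×10^5 per dish in 0.4% Noble agar in RPMI-1066 over a 0.8% agar/Tryptic Soy Broth bottom layer. Compound in DMSO/water was dried onto a 6.5 mm paper disk placed on the upper layer. Read-out was the zone of inhibition from disk edge to nearest colonies (>50 cells), measured by ocular micrometer.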

MCF7/ADR = experiment: Soft agar colony formation disk diffusion assay; format: cell-based, human
How it was run: as §1

MCF7 = experiment: Soft agar colony formation disk diffusion assay; format: cell-based, human
How it was run: as §1

HT29 = experiment: Soft agar colony formation disk diffusion assay; format: cell-based, human
Text: A more elaborate version of this fundamental assay, the soft agar colony formation disk diffusion assay was used. […] The effect of the test drug against tumoral cells could be measured by its inhibitory capacity against colony formation after the delivery of the compound, in different concentrations on an filter disk(4). A modified technique of this assay was used in order to investigate the antiproliferative activity of candidate compounds. Tumoral cells from solid tumors and ascitic lines were plated separately in a two layer agar matrix. Cell lines to be tested were suspended in an upper layer of 0.4% Noble agar (Difco#00142-01) in RPMI-1066 (Gibco#3201875) at a yield varying between 10^4 to 2×10^5 cells per 60 mm Petri dish. Plating efficiency was determined for each line in order to achieve an optimal number of colonies per dish. […] The bottom layer consisted of 0.8% Noble agar, 0.8% Tryptic Soy Broth (difco#0037001)in CMRL-1066/Fischer's. The bottom layers were used within 2 and 9 days of preparation. Plated dishes (bottom layer of agar, upper layer of cells and administered drug were incubated in humidified atmosphere at 37° C., 5% CO2 for 10-20 days depending upon the time necessary to observe adequate colonies (defined as a cell aggregate of more than 50 cells) both control and drug inhibited. Drugs were administered on a paper filter disk (Whatman No. 1) of 6.5 mm diameter placed on the upper layer at 1/3 distance from the edge of the dish. The anti-clonogenic activity of the compounds was measured as the zone of inhibition from the disk edge to the most proximal colonies. This zone of inhibition was checked on an inverted microscope (40×) and was measured with a micrometer mounted in the eyepiece. The ocular micrometer was calibrated with a stage micrometer set for a particular combination of ocular and objective lenses. […] We made a modification of the initial technique by not plating a solid tumor and a leukemia simultaneously in the same Petri dish. […] HUMAN TUMORS. […] LS180 (13) and BE1(14) were obtained from the Oncology Dept. of the Montreal General Hospital. […] Cell lines were routinely passaged twice a week by trypsinization and maintained in 25, or 75-sq. cm Falcon Plastic flasks at 37° C., 5% CO2 in humidified atmosphere. Both compounds were dissolved in DMSO (1 mg/100 ul) and brought to final volume (250 ul) with Millipore deionized sterile water. Further dilutions were made with […] volume of 25 ul of freshly prepared solution was placed on the filter disk and allowed to dry.

SKVLB = experiment: Microculture tetrazolium assay; format: cell-based; conditions: for VLB/OV3: IC50 ratio SKVLB/SKOV3; for IC50: SKVLB, read-out: IC50

Compound | zone of inhibition (LS180; 10 μg/DISK) [Zone Units] | zone of inhibition (LS180; 100 μg/DISK) [Zone Units] | zone of inhibition (MCF7/ADR; 10 μg/DISK) [Zone Units] | zone of inhibition (MCF7/ADR; 100 μg/DISK) [Zone Units] | zone of inhibition (MCF7; 10 μg/DISK) [Zone Units] | zone of inhibition (MCF7; 100 μg/DISK) [Zone Units] | zone of inhibition (HT29; 10 μg/DISK) [Zone Units] | zone of inhibition (HT29; 100 μg/DISK) [Zone Units] | VLB/OV3 (SKVLB) | IC50 (SKVLB) [µM] | cross resistance with adriamycin, MCF7/ADR vs MCF7 (MCF7/ADR)
CCOC(=O)[C@@H]1CC2=C(C(=O)c3cc4ccccc4c(OC(C)=O)c3C2=O)[C@@H](O)O1 (mixture of isomers) [BCH-660, (1S,3S) and (1R,3R)-Ethyl-[6-acetoxy-1-hydroxy-5,12-dioxo-3,4,5,12-tetrahydroanthraceno (2,3-c)pyran-3-yl]formate] | 15.0 ± 4.2 | 76.0 ± 4.2 | 9.1 ± 4.3 | 109.8 ± 10.0 | 27.4 ± 4.3 | 82.3 ± 12.9 | 27.4 ± 4.3 | 103.7 ± 2.1 | 1.22 | 6.49 | –
COC(=O)[C@@H]1CC2=C(C(=O)c3c(c(OC)c4ccccc4c3O)C2=O)[C@@H](O[C@H]2C[C@H](NC(=O)C(F)(F)F)[C@H](O)[C@H](C)O2)O1 (mixture of isomers) [BCH-674, (1'S,1S,3R) and 1'S,1R,3S) Methyl(11-hydroxy-6-methoxy-1-[2',3',6'-trideoxy-3-trifluoroacetamido-4'-hydroxy-L-lyxohexopyranose]-5,12-dioxo-3,4,5,12-tetrahydroanthra-ceno[2,3-c]pyran-3-yl) formate] | 0 | 67.1 ± 8.6 | 0 | 339.6 ± 4.3 | 0 | 76.2 ± 21.6 | 122.2 ± 80.6 | 36.6 ± 17.2 | 0.91 | 6.81 | –
COC(=O)[C@H]1CC2=C(C(=O)c3c(c(OC)c4ccccc4c3O)C2=O)[C@H](O[C@H]2C[C@H](NC(=O)C(F)(F)F)[C@H](O)[C@H](C)O2)O1 (mixture of isomers) [BCH-675, (1'S,1S,3R) and 1'S,1R,3S) Methyl(11-hydroxy-6-methoxy-1-[2',3',6'-trideoxy-3-trifluoroacetamido-4'-hydroxy-L-lyxohexopyranose]-5,12-dioxo-3,4,5,12-tetrahydroanthra-ceno[2,3-c]pyran-3-yl) formate] | 0 | 148.4 ± 31.3 | 0 | 26.3 ± 14.0 | 0 | 30.5 ± 10.5 | 0 | 0 | 0.43 | 3.97 | –
COC(=O)[C@H]1CC2=C(C(=O)c3c(cc4ccccc4c3O)C2=O)[C@H](O[C@H]2C[C@H](NC(=O)C(F)(F)F)[C@H](O)[C@H](C)O2)O1 (mixture of isomers) [BCH-692, (1'S,1S,3R) and (1'S,1R,3S) Methyl[11-hydroxy-1-(2',3',6'-trideoxy-3'-trifluoroacetamido-4'-hydroxy-L-lyxohexopyranose)-5,12-dioxo-3,4,5,12-tetrahydro-anthraceno[2,3-c]pyran-3-yl]formate] | 130.0 ± 12.5 | 250.0 ± 8.4 | 122.0 ± 10.0 | 237.9 ± 8.6 | 131.0 ± 12.7 | 289.5 ± 22.0 | 105.0 ± 5.0 | – | 0.62 | 1.77 | lack of cross resistance with adriamycin
CCOC(=O)C1CC2=C(CO1)C(=O)c1c(cc3ccccc3c1O)C2=O (centres unmarked) [BCH-651, Ethyl(6 and 11 hydroxy-5,12-dioxo-3,4,5,12-tetrahydro-anthraceno[2,3-c]pyran-3-yl)]formate] | 0 | 76.2 ± 21.5 | 10.0 ± 5.0 | 131.1 ± 30.1 | – | 115.9 ± 8.6 | 0 | 61.0 ± 1.0 | 1.13 | 23.6 | –
CCOC(=O)C1CC2=C(CO1)C(=O)c1c(c(O)c3ccccc3c1OC(C)=O)C2=O (centres unmarked) [BCH-654, Ethyl[11-acetoxy-6-hydroxy-5,12-dioxo-3,4,5,12-tetrahydroanthraceno(2,3-c)pyran-3-yl]formate] | 24.4 ± 8.6 | 158.5 ± 9.1 | 0 | 155.6 ± 12.7 | 0 | 115.9 ± 8.6 | 0 | 106.5 ± 21.9 | 0.58 | 57.1 | –
COC(=O)[C@@H]1CC2=C(C(=O)c3c(cc4ccccc4c3O)C2=O)[C@@H](O[C@H]2C[C@H](NC(=O)C(F)(F)F)[C@H](O)[C@H](C)O2)O1 [BCH-691, (1'S,1R,3S)-Methyl-{11-hydroxy-1-(2',3',6'-trideoxy-3'-trifluoroacetamido-4'-hydroxy-L-lyxoheoxpyranose)-5,12-dioxo-3,4,5,12-tetrahydroanthraceno[2,3-c]pyran-3-yl}formate] | 148.5 ± 4.9 | 287.0 ± 80.3 | 115.5 ± 9.1 | 213.5 ± 43.1 | 186.5 ± 4.9 | 417.5 ± 99.7 | 137.0 ± 21.2 | 198.0 ± 21.2 | 1.11 | 1.41 | –
CC(=O)Oc1c2c(c(O)c3ccccc13)C(=O)C1=C(C2=O)C(O)OC(C(C)=O)C1 (centres unmarked) [BCH-704, Methyl(11-acetoxy-1,6-dihydroxy-5,12-dioxo-3,4,5,12-tetrahydroanthraceno[2,3-c]pyran-3-yl)ketone] | 38.3 ± 2.4 | 131.1 ± 31.1 | 122.0 ± 25.8 | 323.0 ± 16.8 | 183.0 ± 10.8 | 320.5 ± 21.5 | 39.6 ± 12.9 | 152.5 ± 43.1 | 0.84 | 13.8 | –
CCOC(=O)C1Cc2c(c(OC)c3c(c2OC)C(=O)c2ccccc2C3=O)CS1 (centres unmarked) [BCH-717] | 0 | 61.0 ± 0.0 | 0 | 0 | 0 | 0 | 0 | 0 | – | > 100 | –
CC(=O)Oc1c2c(c(O)c3ccccc13)C(=O)C1=C(CC(C(C)=O)OC1)C2=O (centres unmarked) [BCH-721] | 18.9 | 122.0 ± 0.0 | 91.0 ± 86.2 | 183.0 ± 86.2 | 55.0 ± 8.4 | 167.0 ± 21.9 | 55.5 ± 8.0 | 121.5 ± 43.1 | 0.55 | 30.7 | –
